PMC3914206

Assays:
Type in all cases: binding
[1] = target: T1, panel of 442 kinases (Homo sapiens, UniProt P10721, V559D); conditions: Compound Concentration 10 µM
T1 construct: purchased KINOMEscan
Source text: (§1) We assessed the selectivity of members of this scaffold using the KINOMEscan methodology across a near comprehensive panel of 442 kinases [[18,27]].

[2] = target: T2, panel of 442 kinases (Homo sapiens, UniProt Q07912); conditions: kinase TNK2; compound concentration 10 µM
T2 construct: purchased KINOMEscan
T2 sequence (Q07912 whole entry): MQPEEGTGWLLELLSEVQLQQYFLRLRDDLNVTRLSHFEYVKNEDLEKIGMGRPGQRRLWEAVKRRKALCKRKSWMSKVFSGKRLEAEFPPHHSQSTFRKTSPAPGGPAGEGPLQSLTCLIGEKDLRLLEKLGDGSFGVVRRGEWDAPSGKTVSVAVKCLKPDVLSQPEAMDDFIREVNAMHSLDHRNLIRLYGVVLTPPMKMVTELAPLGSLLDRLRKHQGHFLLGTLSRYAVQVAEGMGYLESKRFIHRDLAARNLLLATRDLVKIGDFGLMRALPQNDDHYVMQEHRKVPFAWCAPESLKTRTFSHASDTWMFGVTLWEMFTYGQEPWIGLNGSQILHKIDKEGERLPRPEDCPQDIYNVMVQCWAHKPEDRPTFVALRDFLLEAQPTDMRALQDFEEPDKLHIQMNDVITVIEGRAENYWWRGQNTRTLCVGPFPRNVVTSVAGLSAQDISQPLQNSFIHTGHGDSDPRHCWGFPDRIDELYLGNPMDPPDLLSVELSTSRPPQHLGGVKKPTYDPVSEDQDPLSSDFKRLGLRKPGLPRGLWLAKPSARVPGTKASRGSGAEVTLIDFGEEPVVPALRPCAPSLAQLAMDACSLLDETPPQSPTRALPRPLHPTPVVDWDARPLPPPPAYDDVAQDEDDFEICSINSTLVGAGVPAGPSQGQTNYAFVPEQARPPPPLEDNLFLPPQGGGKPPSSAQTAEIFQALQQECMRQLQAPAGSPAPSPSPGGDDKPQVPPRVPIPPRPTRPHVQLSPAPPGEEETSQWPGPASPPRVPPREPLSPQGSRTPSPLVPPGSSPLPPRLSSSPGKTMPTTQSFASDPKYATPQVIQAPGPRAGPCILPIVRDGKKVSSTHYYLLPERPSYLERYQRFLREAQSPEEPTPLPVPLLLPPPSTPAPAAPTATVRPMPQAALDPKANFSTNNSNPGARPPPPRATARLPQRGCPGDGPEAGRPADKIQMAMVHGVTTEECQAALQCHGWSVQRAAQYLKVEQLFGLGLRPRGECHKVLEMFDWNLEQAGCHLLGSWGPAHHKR
Source text: as §1

[3] = target: T3, panel of 442 kinases (Homo sapiens, UniProt O14936); conditions: Compound Concentration 10 µM
T3 construct: purchased KINOMEscan
T3 sequence (O14936 1-926): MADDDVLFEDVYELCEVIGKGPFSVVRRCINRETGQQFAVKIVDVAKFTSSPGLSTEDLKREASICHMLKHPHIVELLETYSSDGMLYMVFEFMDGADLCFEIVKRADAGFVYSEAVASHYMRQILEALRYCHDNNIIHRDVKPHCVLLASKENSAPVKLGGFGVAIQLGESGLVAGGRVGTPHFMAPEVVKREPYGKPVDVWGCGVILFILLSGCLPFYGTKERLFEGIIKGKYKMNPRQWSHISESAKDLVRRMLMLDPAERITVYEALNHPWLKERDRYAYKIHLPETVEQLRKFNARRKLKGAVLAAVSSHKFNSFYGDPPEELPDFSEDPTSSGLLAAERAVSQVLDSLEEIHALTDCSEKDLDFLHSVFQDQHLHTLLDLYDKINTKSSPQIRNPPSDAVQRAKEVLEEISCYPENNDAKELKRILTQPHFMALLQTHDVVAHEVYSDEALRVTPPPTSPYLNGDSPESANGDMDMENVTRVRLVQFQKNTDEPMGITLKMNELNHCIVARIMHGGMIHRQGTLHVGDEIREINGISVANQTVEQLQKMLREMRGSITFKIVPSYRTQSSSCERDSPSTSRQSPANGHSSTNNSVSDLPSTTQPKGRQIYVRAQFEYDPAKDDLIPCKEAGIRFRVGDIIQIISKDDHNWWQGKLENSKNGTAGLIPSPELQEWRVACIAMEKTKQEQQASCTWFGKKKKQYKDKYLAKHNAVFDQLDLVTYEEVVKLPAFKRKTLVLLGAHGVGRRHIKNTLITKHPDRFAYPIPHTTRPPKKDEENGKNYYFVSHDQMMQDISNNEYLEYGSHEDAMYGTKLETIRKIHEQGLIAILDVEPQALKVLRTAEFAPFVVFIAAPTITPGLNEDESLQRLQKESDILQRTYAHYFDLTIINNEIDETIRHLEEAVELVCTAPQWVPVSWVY
Source text: as §1

T1 sequence (P10721 26-976 V559D): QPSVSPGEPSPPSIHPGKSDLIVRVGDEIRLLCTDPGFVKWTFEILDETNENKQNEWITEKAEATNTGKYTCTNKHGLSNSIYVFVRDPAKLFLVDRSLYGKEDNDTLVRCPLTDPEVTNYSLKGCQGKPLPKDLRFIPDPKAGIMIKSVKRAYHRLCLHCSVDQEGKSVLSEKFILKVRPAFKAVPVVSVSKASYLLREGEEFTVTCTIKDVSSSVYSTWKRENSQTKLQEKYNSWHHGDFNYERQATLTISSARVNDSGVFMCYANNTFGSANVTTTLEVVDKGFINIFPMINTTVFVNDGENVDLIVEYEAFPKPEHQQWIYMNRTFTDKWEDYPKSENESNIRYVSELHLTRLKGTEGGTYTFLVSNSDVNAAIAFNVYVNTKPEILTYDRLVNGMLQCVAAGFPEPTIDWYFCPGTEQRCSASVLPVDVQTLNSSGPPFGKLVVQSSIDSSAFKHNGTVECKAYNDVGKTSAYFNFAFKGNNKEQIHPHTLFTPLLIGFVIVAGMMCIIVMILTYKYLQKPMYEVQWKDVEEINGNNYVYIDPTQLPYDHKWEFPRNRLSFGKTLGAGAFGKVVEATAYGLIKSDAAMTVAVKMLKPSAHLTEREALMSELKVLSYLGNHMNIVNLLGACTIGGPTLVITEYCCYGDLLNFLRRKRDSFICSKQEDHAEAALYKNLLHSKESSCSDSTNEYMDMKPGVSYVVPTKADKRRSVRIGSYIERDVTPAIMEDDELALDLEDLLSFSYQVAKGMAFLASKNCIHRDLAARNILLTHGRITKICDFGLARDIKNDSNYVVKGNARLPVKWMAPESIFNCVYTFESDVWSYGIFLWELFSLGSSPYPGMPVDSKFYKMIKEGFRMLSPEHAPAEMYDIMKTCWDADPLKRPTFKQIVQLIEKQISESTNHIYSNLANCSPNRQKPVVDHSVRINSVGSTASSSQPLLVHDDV

Compound	KINOMEscan: KIT(V559D) [1]	% Ctrl, TNK2 [2] [% Ctrl]	KINOMEscan: CASK [3]
CCOc1cc(C(=O)N2CCC(N3CCN(C)CC3)CC2)ccc1Nc1ncc2c(n1)N(C1CCCC1)c1ccccc1C(=O)N2C [Compound 26]	100	80	98
COc1cc(C(=O)N2CCC(N3CCN(C)CC3)CC2)ccc1Nc1ncc2c(n1)N(C1CCCC1)c1ccccc1C(=O)N2C [Compound 25, 11-cyclopentyl-2-((2-methoxy-4-(4-(4-methylpiperazin-1-yl)piperidine-1-carbonyl)phenyl)amino)-5-methyl-5H-benzo[e]pyrimido[5,4-b][1,4]diazepin-6(11H)-one]	96	35	100
COc1cc(C(=O)N2CCC(N3CCN(C)CC3)CC2)ccc1Nc1ncc2c(n1)N1CCc3cccc(c31)C(=O)N2C [Compound 24]		43	100
COc1cc(C(=O)N2CCC(N3CCN(C)CC3)CC2)ccc1Nc1ncc2c(n1)N(C)c1ccccc1C(=O)N2C [15 (LRRK2-IN-1)]	100	18	85
